# From the NIST ThermoML archive (doi:10.1016/j.fluid.2010.05.009)
# ± gives the expanded uncertainty stated by the source.
# Columns and labels:
# [1] = 298.15 K; 101.33 kPa; Liquid; Vibrating tube method
# [2] = refractive index (Na D-line) (dimensionless); settings: 298.15 K; 101.33 kPa; Liquid; Standard Abbe refractometry
smiles,measurement,setting,value
CCOS(=O)(=O)[O-].CC[n+]1cccc(C)c1 [1-ethyl-3-methylpyridinium ethylsulfate],mass density,[1],1219.61 ± 0.41 kg/m3
same,refractive index,[2],1.50591 ± 0.00038
